Assay results from PubChem BioAssay AID1963847 (Molecular Pharmacology Branch, DTP, NCI, 2024).
Several values for one entry are separate records, joined by “and”; a condition that tells them apart may be missing. Equal values may be shown once.

System: 415267-285-R-J2-PDC complex spheroid viability
Assay: Anticancer human tumor 415267-285-R-J2-PDC patient-derived breast carcinoma cell line growth inhibition [POLQ]
Conditions: for viability, T/C: stronger effect = lower value; for IC50: curve of compound
Description: Multicellular complex tumor spheroid response to Polymerase (POL) inhibitors (novobiocin, ART-558, RP6685) in combination with a variety of drugs and investigational agents in selected tumor cell lines
The POL inhibitors (novobiocin, ART-558, and RP6685) were evaluated both individually and in combination with standard of care and investigational anticancer small molecules within a complex spheroid model of solid tumors. . Complex spheroids include a stromal component modeled by human endothelial cells (HUVEC) and fibroblasts modeled by human mesenchymal stem cells (MSCs). The concentration ranges selected for each drug and investigational agent were based upon clinically achievable concentrations if the clinical Cmax of the agent was known.
Compounds. The drugs and investigational agents: novobiocin (NSC847541), ART-558 (NSC835418), RP-6685 (NSC848927), peposertib (NSC802822), ceralasertib (NSC780249), elimusertib (NSC800525), camonsertib (NSC841442), AZD-1390 (NSC803789), olaparib (NSC753686), talazoparib (NSC767125), rucaparib (NSC756644), sotorasib (NSC818433), MRTX-1133 (NSC836407), SN-38 (NSC673596), topotecan (NSC609699), epotoside (NSC141540), doxorubicin (NSC123127), gemcitabine (NSC613327), 5-fluorouracil (NSC19893), paclitaxel (NSC125973), vemurafenib (NSC761431), MSA-2 (NSC828583), SN-011 (NSC837082), adavosertib (NSC754352), prexasertib (NSC758257), carboplatin (NSC241240) and oxaliplatin (NSC266046), were obtained from the National Cancer Institute (NCI) Developmental Therapeutics Program Chemical Repository (21). The FDA-approved anticancer drug set is available from the Developmental Therapeutics Program at https://dtp.cancer.gov/organization/dscb/obtaining/. […] The stock solutions were prepared in dimethyl sulfoxide (DMSO, Sigma-Aldrich, St. Louis, MO, cat. D2650), except for the platinum compounds which were prepared in saline (Quality Biological, Gaithersburg, MD, cat. 114-055-101), at 800-fold the tested concentration and stored at -70 degrees C prior to their use. All drugs and investigational agents were tested over a range starting from a high concentration at or near the clinical Cmax and decreasing in half-log increments. If the clinical Cmax for an agent had not been determined, the highest concentration tested was 10 microM, except for SN-38, which was tested at a high concentration of 1 microM.
Cell Culture. All cells were maintained in an incubator at 37 degrees C and 5% CO2 with 95% humidity. The PDC lines were cultured according to standard operating procedures established by the NCI PDMR (https://pdmr.cancer.gov). Table 3 of the manuscript, lists the cell lines along with the number of the three cell types plated to form the mct-spheroids and media for tumor cell growth. After thawing, all PDC lines, except 997537-175-T-J1-PDC and 415267-285-R-J2-PDC, were cultured in Matrigel-coated flasks prepared with a working solution of 1X Ham's F-12 nutrient mix, without supplementation (Thermo Fisher Scientific, cat. 11765054), 100 U/mL penicillin-streptomycin (Thermo Fisher Scientific, cat. 15140122), and 2.5% Matrigel (Corning Inc., Corning, NY, cat. 354248) for the first three passages. The two PDC lines 997537-175-T-J1-PDC and 415267-285-R-J2-PDC were cultured on uncoated flasks. The 857933-349-R-J2-PDC line was cultured in 6C/Colon 1B media containing advanced DMEM/F-12 (Thermo Fisher Scientific, cat. 12634028), 10 mM HEPES (Thermo Fisher Scientific, cat. 15630080), 1X GlutaMAX supplement (Thermo Fisher Scientific, cat. 35050061), 0.1 mg/mL primocin (InvivoGen, San Diego, CA, cat. ant-pm-2), 10% defined fetal bovine serum, heat inactivated (HyClone Laboratories Inc., Logan, UT, cat. SH30070.03HI), 50% L-WRN conditioned media (ATCC, cat. CRL-3276), 1.25 mM N-Acetyl-L-cysteine (Sigma-Aldrich, cat. A9165), 10 mM nicotinamide (Sigma-Aldrich, cat. N0636), 1X B-27 supplement (Thermo Fisher Scientific, cat. 17504044), 1X N-2 supplement (Thermo Fisher Scientific, cat. […]
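Further: spheroids exposed to compounds for one week before readout.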
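Wherever viability, T/C is given: luminescence used as stand-in measure of viable cells; 100% = DMSO vehicle control viability.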

Row | Structure (SMILES) | viability, T/C (compound 0.0316 µM) | viability, T/C (compound 0.1 µM) | viability, T/C (compound 0.316 µM) | viability, T/C (compound 1 µM) | viability, T/C (compound 3.16 µM) | viability, T/C (compound 10 µM) | IC50 | viability, T/C (compound 0.00316 µM) | viability, T/C (compound 0.01 µM) | viability, T/C (compound 0.00949 µM) | viability, T/C (compound 0.03 µM) | viability, T/C (compound 0.0949 µM) | viability, T/C (compound 0.3 µM) | viability, T/C (compound 0.949 µM) | viability, T/C (compound 3 µM) | viability, T/C (compound 0.000316 µM) | viability, T/C (compound 0.001 µM)
1 | C#Cc1c(F)ccc2cc(O)cc(-c3ncc4c(N5CC6CCC(C5)N6)nc(OCC56CCCN5CC(F)C6)nc4c3F)c12 (stereo unspecified) | 106% and 95.4% and 97.2% | 103% and 112% and 92.5% | 102% and 106% and 94.2% | 107% and 109% and 97.7% | 106% and 91.5% and 101% | 101% and 98% and 104% | > 10000 nM |  |  |  |  |  |  |  |  |  | 
2 | C=CC(=O)N1CCN(c2nc(=O)n(-c3c(C)ccnc3C(C)C)c3nc(-c4c(O)cccc4F)c(F)cc23)C(C)C1 (stereo unspecified) | 88.5% and 95.7% and 91.3% | 105% and 106% and 98.2% | 97.6% and 105% and 93.3% | 91% and 116% and 101% | 98.9% and 108% and 113% | 103% and 107% and 96.3% | > 10000 nM |  |  |  |  |  |  |  |  |  | 
3 | C=CCn1c(=O)c2cnc(Nc3ccc(N4CCN(C)CC4)cc3)nc2n1-c1cccc(C(C)(C)O)n1 | 106% and 108% and 97.9% | 99.5% and 96.9% and 95.5% | 46.4% and 73.5% and 68.8% | 7.6% and 7.2% and 5.6% |  |  | 292 nM and 471 nM and 446 nM | 93.5% and 109% and 105% | 94% and 116% and 97.7% |  |  |  |  |  |  |  | 
4 | CC(=O)O[C@H]1C(=O)[C@@]2(C)[C@H]([C@H](OC(=O)c3ccccc3)[C@]3(O)C[C@H](OC(=O)[C@H](O)[C@@H](NC(=O)c4ccccc4)c4ccccc4)C(C)=C1C3(C)C)[C@]1(OC(C)=O)CO[C@@H]1C[C@@H]2O |  |  |  |  |  |  | < 9.49 nM |  |  | 16.9% and 25% and 13% | 9.1% and 9.98% and 8.84% | 8.45% and 7.67% and 7.24% | 8.09% and 8.99% and 7.37% | 6.85% and 7.15% and 7.58% | 7.67% and 7.6% and 8.18% |  | 
5 | CC(C)n1c(=O)n(C)c2cnc3cc(F)c(-c4ccc(OCCCN5CCCCC5)nc4)cc3c21 | 92.3% and 106% and 90.9% | 97% and 105% and 101% | 102% and 115% and 91.9% | 112% and 121% and 108% | 110% and 108% and 96.3% | 83.6% and 103% and 97.1% | > 10000 nM |  |  |  |  |  |  |  |  |  | 
6 | CC1COCCN1c1cc(-c2ccnn2C)c2ccnc(-c3ccn[nH]3)c2n1 (stereo unspecified) | 46.6% and 47.9% and 59.5% | 10.6% and 13.9% and 11.1% | 6.96% and 5.73% and 5.2% | 5.32% and 5.61% and 4.36% | 4.68% and 4.28% and 3.7% | 4.66% and 4.53% and 3.78% | < 31.6 nM and 39.6 nM |  |  |  |  |  |  |  |  |  | 
7 | CC1COCCN1c1cc(C2(O)CC3CCC(C2)O3)c2cnn(-c3ccn[nH]3)c2n1 (stereo unspecified) | 18.3% and 19.4% and 19.9% | 6.66% and 6.95% and 6.71% | 5.68% and 5.24% and 4.27% | 3.96% and 5.04% and 3.53% | 6.45% and 6.44% and 3.52% | 4.11% and 4.93% and 2.88% | < 31.6 nM |  |  |  |  |  |  |  |  |  | 
8 | CC1COCCN1c1cc(C2(S(C)(=N)=O)CC2)nc(-c2ccnc3[nH]ccc23)n1 (stereo unspecified) | 96.2% and 107% and 97.5% | 93.1% and 103% and 94.9% | 69.9% and 86.8% and 66.4% | 12.1% and 15.8% and 13% | 7.35% and 7.07% and 7.38% | 5.4% and 3.22% and 5.26% | 470 nM and 575 nM and 450 nM |  |  |  |  |  |  |  |  |  | 
9 | CCCS(=O)(=O)Nc1ccc(F)c(C(=O)c2c[nH]c3ncc(-c4ccc(Cl)cc4)cc23)c1F | 96.6% and 91.5% and 93.2% | 96.8% and 99.3% and 96.4% | 104% and 98% and 94.8% | 107% (2×) and 100% | 88.1% and 98.2% and 98% | 86.5% and 87.4% and 72% | > 10000 nM |  |  |  |  |  |  |  |  |  | 
10 | CC[C@@]1(O)C(=O)OCc2c1cc1n(c2=O)Cc2cc3c(CN(C)C)c(O)ccc3nc2-1 | 25.3% and 37.5% and 22.8% | 7.48% and 7.95% and 7.34% |  |  |  |  | 20.5 nM and 25.3 nM and 19.4 nM | 103% and 108% and 98.3% | 90.7% and 108% and 86.8% |  |  |  |  |  |  | 95.8% and 95.3% and 99.4% | 113% and 97% and 101%
11 | CCc1c2c(nc3ccc(O)cc13)-c1cc3c(c(=O)n1C2)COC(=O)[C@]3(O)CC | 5.41% and 4.4% and 6.58% | 4.94% and 2.95% and 3.9% | 2.72% and 1.83% and 3.74% | 1.69% and 0.99% and 1.42% |  |  | < 3.16 nM and 3.85 nM | 32.2% and 58.6% and 31.9% | 9.97% and 8.74% and 13.6% |  |  |  |  |  |  |  | 
12 | CCc1cc2c(N3CCc4c(cc(Cn5ccnc5)cc4-c4cn(C)nc4C(F)(F)F)C3=O)cc(C)nc2c(OC)n1 | 84.8% and 99.7% and 90.9% | 89.5% and 98.3% and 92.6% | 74.6% and 79% and 86.6% | 80.3% and 82.8% and 91.5% | 71.9% and 84% and 83.9% | 69% and 78.6% and 69.5% | > 10000 nM |  |  |  |  |  |  |  |  |  | 
13 | CCc1cc2c(N3CCc4c(cc(Cn5ccnc5)cc4-c4cn(C)nc4C(F)(F)F)C3=O)ccnc2c(OC)n1 | 82.8% and 92.9% and 84.3% | 82.9% and 92.8% and 96.7% | 85.8% and 89.2% and 90.2% | 83.7% and 94.3% and 90% | 82.2% and 82.6% and 86.5% | 75.7% and 84.4% and 75.4% | > 10000 nM |  |  |  |  |  |  |  |  |  | 
